Data reported in patent publication US10350213B2 (AI Therapeutics, Inc., priority 2015, dated 2019).
pIC50: −log10 of the molar value. Like-named read-outs stand apart in the source and are kept apart here.

Tests used:
[1] = test system: A172 (Human neuroblastoma); experiment: CellTiterGlo cell viability assay; format: cell-based; settings: A 172
Method: (§1) Briefly, test compounds (5 μl stock solution, 6×desired final well concentration) were dispensed to 384-well assay plates, TSC2−/− MEF cells (1000 cells per well in 25 μL of media) were added to the plates and the plates were incubated for 72 h (3 days) at 37° C. under an atmosphere of 5% CO2 in a humidified incubator for 3 days. Cell viability was determined with CellTiter-Glo® luminescence assay (Promega) per the manufacturer's instructions. Viability was expressed as a percentage of untreated control cells.
(§2) 35 cell lines were identified as sensitive to apilimod-induced cytotoxicity in this assay. The apilimod-sensitive cells included cells derived from several different cancers including non-Hodgkin's lymphoma, Hodgkin's lymphoma, colorectal cancer, and lung cancer. The most sensitive of those tested were non-Hodgkin's Lymphoma (NHL) cell lines. […] The only NHL subtype not sensitive in this assay was follicular.

[2] = test system: COLO-205 (Human Colorectal); experiment: CellTiterGlo cell viability assay; format: cell-based
Method: as §1, §2

[3] = test system: DOHH-2 (Human Follicular B Cell Lymphoma-GCB); experiment: CellTiterGlo cell viability assay; format: cell-based; settings: Human Follicular Lymphoma - DLBCL-GCB
Method: as §1, §2

[4] = test system: H1693 (Human lung carcinoma); experiment: CellTiterGlo cell viability assay; format: cell-based; settings: NCI-H1693
Method: as §1, §2

[5] = test system: H460 (Human lung carcinoma); experiment: CellTiterGlo cell viability assay; format: cell-based; settings: NCI-H460
Method: as §1, §2

[6] = test system: HCT116 (Human colorectal cancer); experiment: CellTiterGlo cell viability assay; format: cell-based; settings: HCT-116
Method: as §1, §2

[7] = test system: HT (Human Diffuse Large B Cell Lymphoma -GCB); experiment: CellTiterGlo cell viability assay; format: cell-based; settings: Human DLBCL-GCB
Method: as §1, §2

[8] = test system: RKO (Human colorectal cancer); experiment: CellTiterGlo cell viability assay; format: cell-based
Method: as §1, §2

[9] = test system: ST486 (Human Burkitt's lymphoma); experiment: CellTiterGlo cell viability assay; format: cell-based
Method: as §1, §2

[10] = test system: SUDHL-1 (Human Anaplastic Large Cell Lymphoma); experiment: CellTiterGlo cell viability assay; format: cell-based; settings: SU-DHL-1
Method: as §1, §2

[11] = test system: SW480 (Human Colorectal); experiment: CellTiterGlo cell viability assay; format: cell-based
Method: as §1, §2

[12] = test system: SUDHL-4 (Human Diffuse Large B Cell Lymphoma -GCB); experiment: CellTiterGlo cell viability assay; format: cell-based; settings: for pIC50: SUDHL-4, read-out: IC50
[13] = test system: A549 (Human lung carcinoma); experiment: CellTiterGlo cell viability assay; format: cell-based
[14] = test system: WSU-DLCL2 (Human Diffuse Large B Cell Lymphoma -GCB); experiment: CellTiterGlo cell viability assay; format: cell-based
[15] = test system: Jurkat (Human T-cell leukemia); experiment: CellTiterGlo cell viability assay; format: cell-based
[16] = test system: H4 (Human neuroglioma); experiment: CellTiterGlo cell viability assay; format: cell-based
[17] = test system: SW780 (Human Bladder carcinoma (GATOR−/−)); experiment: CellTiterGlo cell viability assay; format: cell-based
[18] = test system: CAPAN2 (Human pancreatic cancer); experiment: CellTiterGlo cell viability assay; format: cell-based; settings: Capan-2
[19] = test system: PANC1 (Human pancreatic cancer); experiment: CellTiterGlo cell viability assay; format: cell-based; settings: PANC-1
[20] = test system: MiaPaCa-2 (Human pancreatic cancer); experiment: CellTiterGlo cell viability assay; format: cell-based; settings: MIA PaCa-2
[21] = test system: LnCap (Human prostate cancer); experiment: CellTiterGlo cell viability assay; format: cell-based
[22] = test system: 22RV1 (Human prostate cancer); experiment: CellTiterGlo cell viability assay; format: cell-based
[23] = test system: K562 (Human myelogenous leukemia); experiment: CellTiterGlo cell viability assay; format: cell-based
[24] = test system: PC-3 (Human prostate cancer); experiment: CellTiterGlo cell viability assay; format: cell-based
[25] = test system: SW1088 (Human neuroblastoma); experiment: CellTiterGlo cell viability assay; format: cell-based
[26] = test system: 122 human cancer cell lines representing 24 tumor types; experiment: 3-day CellTiterGlo assay, cancer cell line panel; format: cell-based; settings: of 122 human cancer cell lines; sensitive if IC50 less than 500 nM; 3-day assay
From the text: as §2

[27] = test system: non-Hodgkin's Lymphoma (NHL) cell lines; experiment: 3-day CellTiterGlo assay, NHL cell lines; format: cell-based, human; settings: sensitive if IC50 less than 500 nM; 3-day assay
From the text: as §2

[28] = test system: NHL cell lines; experiment: 7 day cell viability assay, NHL cell lines; format: cell-based; settings: 7 day assay; for pIC50: 168 h
From the text: (§3) This is exemplified in FIG. 2A for the HCT116 colorectal carcinoma cells. […] And all NHL subtypes were sensitive in this assay, including mantle, follicular, Burkitt's, DLBCL-ABC, DLBCL-GCB, and double-hit DLBCL.

[29] = test system: all cell lines; experiment: Longer cell viability assays (3, 5, and 7 days); format: cell-based; settings: 168 h, 7-day exposure
From the text: as §3

[30] = test system: non-cancer (normal) cells; experiment: Cell viability assay, non-cancer (normal) cells; format: cell-based
From the text: as §3

[31] = test system: peripheral blood mononuclear cells; experiment: Vacuole formation in peripheral blood mononuclear cells; format: cell-based; settings: treatment for 24 h
[32] = test system: IL-12/IL-23 synthesis; settings: oral administration; patients with psoriasis; Wada et al. 2012; cited from earlier work
[33] = test system: synovial IL-12 and IL-23 expression; settings: patients with rheumatoid arthritis; Krauz et al. 2012; cited from earlier work
[34] = active Crohn's disease; Sands et al. 2010; cited from earlier work

Cc1cccc(/C=N/Nc2cc(N3CCOCC3)nc(OCCc3ccccn3)n2)c1 [apilimod] gave a pIC50 [1] of 5.70, a pIC50 [2] of 6.42 and a pIC50 [3] of 6.15. The pIC50 [4] was 5.70, the pIC50 [5] was under 5.70 and the pIC50 [6] was 6.90. It also gave a pIC50 [7] of 6.19, a pIC50 [8] of under 5.30 and a pIC50 ([9]; Homo sapiens, 72 h, 3-day CellTiterGlo assay) of over 7.00. For the same compound, the pIC50 ([9]; Human Burkitt's lymphoma) was 7.60, the pIC50 [10] was 6.23 and the pIC50 [11] was 7.05. It also gave an IC50 ([12]; Homo sapiens, 72 h, SU-DHL-4, three-day assay, read-out: IC50 (nM) SU-DHL-4) of 23 nM, a pIC50 ([12]; Homo sapiens, SU-DHL-4, 72 h, 3-day CellTiterGlo assay) of 7.30 and a pIC50 ([12]; SU-DHL-4, Human DLBCL-GCB) of 7.60. The pIC50 [13] was 6.96, the IC50 ([14]; Homo sapiens, WSUDLCL2, 72 h, three-day assay, read-out: IC50 (nM) WSU-DLCL2) was 54 nM and the pIC50 ([14]; WSUDLCL2, Human DLBCL-GCB, read-out: IC50) was 6.80. For the same compound, the pIC50 [15] was 6.70, the pIC50 [16] was 6.60 and the pIC50 [17] was 6.00. The pIC50 [18] was under 5.70, the pIC50 [19] was under 5.70 and the pIC50 [20] was under 5.70. The pIC50 [21] was 5.52, the pIC50 [22] was under 5.30 and the pIC50 [23] was under 5.30. The pIC50 [24] was 5.00, the pIC50 [25] was under 5.00 and the “number of cell lines sensitive to apilimod-induced cytotoxicity” value [26] was 35. The “share of NHL cell lines sensitive to apilimod” value [27] was “over 50%”, the “share of NHL cell lines sensitive to apilimod” value ([28]; 32 NHL cell lines tested) was 72% and the pIC50 ([28]; different NHL subtypes, read-out: IC50) was over 6.90. The pIC50 ([28]; sensitive NHL cell lines, read-out: average IC50) was 7.16, the pIC50 [29] was over 6.90 and the pIC50 [30] was 4.80. The vacuole formation [31] was “induces vacuole formation”, the immunomodulatory activity [32] was “showed immunomodulatory activity” and the “effect on synovial IL-12 and IL-23 expression” value [33] was “failed to alter synovial IL-12 and IL-23 expression”. For the same compound, the efficacy over placebo [34] was “did not demonstrate efficacy over placebo” and the tolerability [34] was “well tolerated”.
